Like-named read-outs stand apart in the source and are kept apart here.
What was measured:
HEK293T cells = test: Cytotoxicity of SM60 in HEK293T cells (CellTiter-Blue); format: cell-based; conditions: Homo sapiens, HEK-293T, 48 h, read-out: EC50 for inhibition of cell proliferation
Procedure: HEK293T cells were seeded (2×10^4 cells/well) on a 96-well plate and grown in DMEM (supplemented with 10% heat-inactivated fetal bovine serum, 100 units/mL penicillin, 100 μg/mL streptomycin) for 48 h. Cells were then treated with DMSO (for control) or various concentrations of SM60. In a separate experiment, cells were briefly (3 min) irradiated with 365 nm UV following SM60 treatment and were allowed to grow at 37° C. for 48 h. Cell viability was measured using CellTiter-Blue® (Promega) by following the manufacturer's protocol. Equation 1,
Y=Bottom+(Top−Bottom)/[1+10^((log EC50−X)*Hillslope)] (1),
was used to fit a ten-point dose-response curve to determine the EC50 values for inhibition of cell-proliferation using GraphPad Prism 8.0. Top and Bottom are plateaus of the dose-response curve, X is the log of SM60-concentration, Hillslope is the slope factor or Hill slope. All the experiments were performed in triplicate.

[1] = Photodecaging to citrulline with 365 nm UV (HPLC, LC-MS, 1H NMR); format: physicochemical; conditions: up to 5 min, PBS pH 7.4 with 2 mM DTT (SM70: 1:1 acetonitrile/PBS)
Source text: FIG. 1. SM60, a photocaged-citrulline and its conversion to citrulline with 365 nm UV light. a, Conversion of peptidyl-arginine to peptidyl-citrulline by the PADs. b, Chemical structures of SM60 and SM70. c, Schematic representation of the incorporation of SM60 into proteins by an engineered LeuRS-tRNA^Leu pair and subsequent conversion to citrulline. d, Decaging of SM60 to citrulline with 365 nm UV irradiation. Left and right panels indicate the HPLC and ion chromatograms, showing the disappearance of SM60 and the formation of citrulline (Cit), respectively, with increasing UV exposure. Quantitative analyses of decaging and Cit formation are shown in the insets. Assay mixture: 1 mM SM60, 2 mM DTT, Phosphate-buffered saline pH 7.4.
FIG. 8. ^1H NMR spectrum of SM60 in D2O after UV (365 nm) exposure for 1, 2, 3, 4 and 5 min. […] Furthermore, an upfield shift was also observed for the ‘b’ protons upon the formation of citrulline. The multiplets at 3.6-3.7 and 2.6-2.7 ppm are due to DTT used in the assay. Assay condition: 1 mM SM60, 2 mM DTT, D2O.
FIG. 9. (A) Photodecaging of Fmoc-SM60 to produce Fmoc-Cit. (B) HPLC chromatograms indicating the disappearance of Fmoc-SM60 and the production of Fmoc-Cit with increasing UV exposure. […] Assay mixture: 0.5 mM Fmoc-SM60, 2 mM DTT, Phosphate-buffered saline pH 7.4. ESI-Mass spectra of Fmoc-SM60 (C) and Fmoc-Cit (D).
FIG. 10. […]

[2] = tested on: EcLeuRS-tRNACUA^EcLeu pair; test: EGFP-39-TAG reporter expression assay in HEK293T cells; format: cell-based; conditions: EcLeuRS mutant (M40I, Y499I, Y527A, H529G, T252A)
Source text: The first two pairs are restricted to structural analogs of phenylalanine and tryptophan, respectively, precluding their use to genetically encode SM60. However, both the archaeal pyrrolysyl (PylRS/tRNA^Pyl) and E. coli leucyl (EcLeuRS-tRNACUA^EcLeu) pairs have been engineered to charge UAAs structurally similar to SM60. […] This property has provided a facile route to rapidly expand the repertoire of genetically encoded UAAs without having to engineer new aaRS mutants for each distinct substrate. To explore if such a polyspecific aaRS can accept SM60 as a substrate, several existing PylRS and EcLeuRS mutants were screened using an EGFP-39-TAG expression assay in HEK293T cells in the presence of their cognate amber suppressor tRNA. […] Furthermore, UV irradiation of cells expressing EGFP-39-SM60 before lysis followed by protein purification and MS analysis afforded a single protein mass consistent with the complete deprotection and incorporation of citrulline at position 39 of EGFP (FIG. 2d).
HEK293T cells were maintained at 37° C. in a humidified incubator supplemented with 5% CO2. […]
EGFP fluorescence was analyzed 48 h after transfection. […] Lysate were clarified by centrifugation at 16,000×g for 10 min and 100 μL of supernatant was transferred to a clear-bottom 96-well plate for fluorescence measurement following previously described protocol. […]

Structure (SMILES): N[C@@H](CCCNC(=O)NCc1ccccc1[N+](=O)[O-])C(=O)O [SM60]
- EC50 (HEK293T cells; SM60 alone): > 10 mM
- EC50 (HEK293T cells; combination of SM60 and 365 nm UV (3 min)): 4.5 ± 0.2 mM
- photodecaging / conversion to citrulline form [1]: quantitatively converted to Cit
- EGFP-39-TAG reporter expression [2]: robust expression of the fluorescence reporter only when SM60 was supplemented in the medium

— patent publication US20240166594A1, “PHOTOCAGED CITRULLINE ANALOGS AND METHODS FOR SITE-SPECIFIC INCORPORATION OF CITRULLINE INTO PROTEINS” (University of Massachusetts, priority 2021, published 2024)
